Test results taken from paper PMC9737391, “Trifluoromethylcinnamanilide Michael Acceptors for Treatment of Resistant Bacterial Infections” (International Journal of Molecular Sciences, 2022).
Converted amounts (≈) assume the structure as drawn. “And” between values parts separate entries of the source, which are not always exact repeats. Identical values can stand only once.

Legend:
staphylococcal biofilm = tested on: staphylococcal biofilm; set-up: method as in ref 26, 51 = [26]; PMID 30087309; doi:10.3390/ijms19082318; 26. Pospisilova S. Kos J. Michnova H. Kapustikova I. Strharsky T. Oravec M. Moricz A.M. Bakonyi J. Kauerova T. Kollar P. Synthesis and spectrum of biological activities of novel N -arylcinnamamides In || [51]; 51. Pospisilova S. Kos J. Michnova H. Strharsky T. Cizek A. Jampilek J. N -Arylcinnamamides as antistaphylococcal agents Proceedings of the 4th International Electronic Conference on Medicinal Chemist; settings: cited from earlier work
M. tuberculosis = tested on: M. tuberculosis; set-up: method as in ref 26 = [26]; PMID 30087309; doi:10.3390/ijms19082318; 26. Pospisilova S. Kos J. Michnova H. Kapustikova I. Strharsky T. Oravec M. Moricz A.M. Bakonyi J. Kauerova T. Kollar P. Synthesis and spectrum of biological activities of novel N -arylcinnamamides In; settings: MTT, at MIC values; cited from earlier work
M. tuberculosis H37Ra = tested on: M. tuberculosis H37Ra; set-up: method as in ref 26 = [26]; PMID 30087309; doi:10.3390/ijms19082318; 26. Pospisilova S. Kos J. Michnova H. Kapustikova I. Strharsky T. Oravec M. Moricz A.M. Bakonyi J. Kauerova T. Kollar P. Synthesis and spectrum of biological activities of novel N -arylcinnamamides In; settings: average over the named compounds; cited from earlier work
S. aureus/MRSA [1] = tested on: S. aureus/MRSA; set-up: method as in ref 26, 51 = [26]; PMID 30087309; doi:10.3390/ijms19082318; 26. Pospisilova S. Kos J. Michnova H. Kapustikova I. Strharsky T. Oravec M. Moricz A.M. Bakonyi J. Kauerova T. Kollar P. Synthesis and spectrum of biological activities of novel N -arylcinnamamides In || [51]; 51. Pospisilova S. Kos J. Michnova H. Strharsky T. Cizek A. Jampilek J. N -Arylcinnamamides as antistaphylococcal agents Proceedings of the 4th International Electronic Conference on Medicinal Chemist; settings: cited from earlier work
MRSA = tested on: MRSA; set-up: method as in ref 26, 51 = [26]; PMID 30087309; doi:10.3390/ijms19082318; 26. Pospisilova S. Kos J. Michnova H. Kapustikova I. Strharsky T. Oravec M. Moricz A.M. Bakonyi J. Kauerova T. Kollar P. Synthesis and spectrum of biological activities of novel N -arylcinnamamides In || [51]; 51. Pospisilova S. Kos J. Michnova H. Strharsky T. Cizek A. Jampilek J. N -Arylcinnamamides as antistaphylococcal agents Proceedings of the 4th International Electronic Conference on Medicinal Chemist; settings: against MRSA; cited from earlier work
[2] = tested on: vancomycin-resistant E. faecalis VRE 342B (VRE1); test: MBC, agar aliquot subculture method; type: cell-based, Enterococcus faecalis
[3] = tested on: vancomycin-resistant E. faecalis VRE 725B (VRE3); test: MIC, microtitration broth method; type: cell-based, Enterococcus faecalis
[4] = tested on: Enterococcus faecalis ATCC 29212; test: MBC, agar aliquot subculture method; type: cell-based; settings: ATCC29212, E. faecalis reference strain
S. aureus/MRSA [5] = test: Antistaphylococcal activity, summary over strains; type: cell-based, Staphylococcus aureus
M. smegmatis ATCC 700084 = test: In vitro antimycobacterial evaluation (MIC); type: cell-based, Mycobacterium smegmatis; settings: Mycolicibacterium smegmatis, ATCC700084
[6] = tested on: Staphylococcus aureus ATCC 29213; test: MBC, agar aliquot subculture method; type: cell-based; settings: ATCC29213, S. aureus ATCC 29213
[7] = tested on: vancomycin-resistant E. faecalis VRE 368 (VRE2); test: MIC, microtitration broth method; type: cell-based, Enterococcus faecalis
[8] = Lipophilicity determination by RP-HPLC; type: physicochemical; settings: RP-HPLC, logarithm of capacity factor k
Protocol: It is evident from the graphs in Figure 1 that the correlation coefficients of the dependences of log k/log D6.5/log D7.4 have a value of r = 0.999 (n = 32), which means that the investigated compounds behave insignificantly differently in aqueous media with different pH. Moreover, lipophilicity was calculated as log P and Clog P using two prediction programs. […] Therefore, only log P values predicted by ACD/Percepta can be used for correlations with experimental values. These matches are shown in the graphs in Figure 2, and according to the correlation coefficient r~0.940 (n = 32), it can be argued that even the predicted lipophilicity values correlate with the experimentally measured ones. However, the largest variations were observed (no difference for series 1, 2) for compounds substituted with 2-Cl, 2-CF3, 2,5-Cl, 4-F, 4-CF3, and 3,5-F, 3,5-Cl. These are mainly substituents capable of forming hydrogen and other types of non-bonding interactions both with the surrounding environment and within the molecule. Overall, series 1 (3-CF3) is less lipophilic than series 2 (4-CF3), but the differences in the experimental data are insignificant. Unsubstituted derivatives 1a/2a are the least lipophilic compounds, while derivatives 1o/2o (3,5-Cl) and 1p/2p (3,5-CF3) are the most lipophilic compounds.
Experimental determination of lipophilicity values (log k, log D6.5, and log D7.4) was performed under the same conditions and on the same device as described by Strharsky et al..

S. aureus ATCC 29213 = test: MTT assay, inhibition of bacterial respiration; type: cell-based, Staphylococcus aureus
Source text: The MTT assay can be used to assess cell growth by measuring respiration. Respiratory activity of bacterial cells (which is finally reflected in their viability) less than 70% after exposure to the MIC values for each tested compound is considered as a positive result of this assay. This low level of cell oxidative metabolism indicates inhibition of cell growth by inhibition of respiration. The lowest multiples of MIC values that achieved more than 70% inhibition of S. aureus ATCC 29213 viability (%) are shown in Table 3.
The percent inhibition of respiration of S. aureus ATCC 29213 was determined through the MTT assay. The assay was performed as described recently. The percent viability is calculated through the comparison of a measured value and that of the uninhibited control: % viability = OD570E/OD570P × 100, where OD570E is the reading from the compound-exposed cells, while OD570P is the reading from the uninhibited cells (positive control). Cytotoxic potential is determined by a percent viability of <70% [46, 47].

[9] = tested on: vancomycin-resistant E. faecalis VRE 725B (VRE3); test: MBC, agar aliquot subculture method; type: cell-based, Enterococcus faecalis
[10] = tested on: Staphylococcus aureus ATCC 29213; test: MIC, microtitration broth method; type: cell-based; settings: ATCC29213, S. aureus ATCC 29213
[11] = tested on: methicillin-resistant S. aureus 63718 (MRSA3); test: MBC, agar aliquot subculture method; type: cell-based; settings: Staphylococcus aureus; MRSA 63718
[12] = tested on: methicillin-resistant S. aureus SA 630 (MRSA2); test: MBC, agar aliquot subculture method; type: cell-based; settings: Staphylococcus aureus; MRSA SA 630
[13] = tested on: Mycobacterium marinum CAMP 5644; test: In vitro antimycobacterial evaluation (MIC); type: cell-based
[14] = tested on: methicillin-resistant S. aureus 63718 (MRSA3); test: MIC, microtitration broth method; type: cell-based; settings: Staphylococcus aureus; MRSA 63718
[15] = tested on: methicillin-resistant S. aureus SA 3202 (MRSA1); test: MIC, microtitration broth method; type: cell-based; settings: Staphylococcus aureus; MRSA SA 3202
[16] = tested on: human monocytic leukemia cell line THP-1; test: In vitro cell viability (cytotoxicity screening); type: cell-based; settings: 24 h, medium with 10% FBS, ± SD, n = 6
Protocol: The investigated anilides can be divided into three groups. […] Higher concentrations (than 10 or 30 µM) were not possible to evaluate due to precipitation of the tested compounds in water medium. Based on all these observations, it can be concluded that the high antimicrobial activity of 3,5-CF3-substituted compounds is associated with significant cytotoxic effect against eukaryotic cells. On the other hand, the other still effective compounds, especially agents 1j and 1o, have an insignificant toxic effect, which makes them interesting for further study.
Human monocytic leukemia THP-1 cells obtained from the European Collection of Cell Cultures (ECACC, Salisbury, UK) were used for in vitro antiproliferative assays. A recently described procedure was used.

E. faecalis/VRE = test: Anti-enterococcal activity, summary over strains; type: cell-based, Enterococcus faecalis
[17] = tested on: methicillin-resistant S. aureus SA 3202 (MRSA1); test: MBC, agar aliquot subculture method; type: cell-based; settings: Staphylococcus aureus; MRSA SA 3202
[18] = tested on: methicillin-resistant S. aureus SA 630 (MRSA2); test: MIC, microtitration broth method; type: cell-based; settings: Staphylococcus aureus; MRSA SA 630
[19] = tested on: M. smegmatis and M. marinum; test: Antimycobacterial activity, summary over both strains; type: cell-based; settings: average over the named compounds and strains; read-out: average MIC against M. smegmatis and M. marinum
[20] = tested on: vancomycin-resistant E. faecalis VRE 368 (VRE2); test: MBC, agar aliquot subculture method; type: cell-based, Enterococcus faecalis
[21] = tested on: Enterococcus faecalis ATCC 29212; test: MIC, microtitration broth method; type: cell-based; settings: ATCC29212, E. faecalis reference strain
[22] = tested on: vancomycin-resistant E. faecalis VRE 342B (VRE1); test: MIC, microtitration broth method; type: cell-based, Enterococcus faecalis

O=C(/C=C/c1ccccc1)Nc1cc(C(F)(F)F)cc(C(F)(F)F)c1 [3b]
effect on staphylococcal biofilm (staphylococcal biofilm): ability to inhibit the growth of staphylococcal biofilm and disrupted mature biofilm in concentrations close to MICs | inhibition of M. tuberculosis respiration (M. tuberculosis): 77% | average MIC against M. tuberculosis H37Ra (M. tuberculosis H37Ra): ~ 24 µM | bactericidal effect (S. aureus/MRSA [1]): bactericidal effect in concentrations close to MICs | effect in combination with ciprofloxacin (MRSA): synergistic effect | effect in combination with tetracycline (MRSA): synergistic effect | effect in combination with vancomycin (MRSA): additivity

O=C(/C=C/c1cccc(C(F)(F)F)c1)Nc1ccc(C(F)(F)F)cc1 [1j, (2E)-3-[3-(Trifluoromethyl)phenyl]-N-[4-(trifluoromethyl)phenyl]prop-2-enamide]
MBC [2]: 22.3 µM (≈ 8.01 µg/mL) | MIC [3]: 22.3 µM (≈ 8.01 µg/mL) | MBC [4]: 22.3 µM (≈ 8.01 µg/mL) | MIC (S. aureus/MRSA [5]; Staphylococcus aureus, MRSA, average over the named compounds and strains, read-out: average MIC against S. aureus/MRSA): ~1.4 µM (≈ 0.503 µg/mL) | antistaphylococcal MICs/MBCs (S. aureus/MRSA [5]; range over S. aureus and MRSA isolates and over the named compounds): 0.15 to 5.57 µM and 0.146 to 5.57 µM | MIC (M. smegmatis ATCC 700084): 11.1 µM (≈ 3.99 µg/mL) | MBC [6]: 2.78 µM (≈ 0.999 µg/mL) | MIC [7]: 44.5 µM (≈ 16 µg/mL) | log k [8]: 0.9247 | Conc.: lowest multiple of MIC with at least 70% inhibition of respiratory activity (S. aureus ATCC 29213): 0.5× MIC (0.5× MBC) | Conc.: the same concentration as multiple of MBC (S. aureus ATCC 29213): 0.5× MIC (0.5× MBC) | MBC [9]: 22.3 µM (≈ 8.01 µg/mL) | MIC [10]: 2.78 µM (≈ 0.999 µg/mL) | melting point: 118 to 120 °C | MBC [11]: 5.57 µM (≈ 2 µg/mL) | MBC [12]: 1.39 µM (≈ 0.499 µg/mL) | MIC MM ([13]; M. marinum CAMP 5644): 0.348 – µM | MIC ([13]; Mycobacterium marinum, CAMP5644, M. marinum CAMP 5644): 0.29 to 22.2 µM (≈ 0.104 to 7.98 µg/mL) | MIC [14]: 2.78 µM (≈ 0.999 µg/mL) | MIC [15]: 2.78 µM (≈ 0.999 µg/mL) | IC50 [16]: > 30 µM | MIC (E. faecalis/VRE; Enterococcus faecalis, VRE, average over the named compounds and strains, read-out: average MIC against E. faecalis/VRE): ~15 µM (≈ 5.39 µg/mL) | anti-enterococcal MICs/MBCs (E. faecalis/VRE; range over E. faecalis and VRE isolates and over the named compounds): 2.34 to 44.5 µM | MBC [17]: 2.78 µM (≈ 0.999 µg/mL) | MIC [18]: 1.39 µM (≈ 0.499 µg/mL) | MIC [19]: ~4.1 µM (≈ 1.47 µg/mL) | MBC [20]: 44.5 µM (≈ 16 µg/mL) | MIC [21]: 22.3 µM (≈ 8.01 µg/mL) | MIC [22]: 22.3 µM (≈ 8.01 µg/mL)
